Several values for one entry are separate records, joined by “and”; a condition that tells them apart may be missing. Equal entries are not always repeated. Entries after “also recorded” stand apart in the source; their conditions may differ.

Data set [1] can be described thus: GFR in swine by iohexol plasma disappearance. Conditions: same swine. It counts as in vivo, Osawbaw swine.
Data set [2] can be described thus: GFR by iohexol plasma clearance in gentamycin-induced AKI dogs. The class given is in vivo, dog. The protocol:
EDTA-anticoagulated blood was collected at 0, 5, 10, 20, 30, 60, 180, 240 and 300 minutes post-injection, centrifuged within 3 hours, and stored at -20° C.

Data set [3] in a line: GFR in dog by iohexol analysis. To be noted: 33.0 kg dog.
Description: The higher noise in the data was caused by the movement during the data collection as the dog was not anesthetized.
Data set [4] in a line: Intravital 2-photon microscopy of plasma clearance (fluorescence intensity / intensity ratio in kidney blood vessels) after bolus infusion. To be noted: kidney of normal male rat, bolus IV infusion of dye mixture, 12-200 seconds.
Description: These images were taken as function of time after a bolus intravenous infusion of a dye mixture containing a FITC-inulin (5.5 kD) and 500 kD dextran labeled with a sulforhodamine 101, i.e. Texas Red®. […] A red blood cell (RBC) appears as a dark object as it excludes dye.
The intensity ratio from the blood vessels in FIG. 3 changes over time with a change of relative concentrations of the two dyes.
Each data point in FIG. 5 was the average ratio value of the same region from a blood vessel extracted from an image time-series (such as the images shown in FIG. 3). The data points were plotted every 0.5 seconds up to 200 seconds.
The subject of a further data set is dogs. The experiment in a line: Gentamycin-induced acute kidney injury in dogs: serum creatinine, BUN, USG, UPC. It counts as in vivo, dog. Conditions: individual dogs; for Creatinine: gentamycin 10 mg/Kg IV q8 hours. The source says: Five spayed female young adult hound-type mogrel dogs were confirmed to be in good health based on physical examination, complete blood count, blood chemistry analysis, urinalysis, urine protein-to-creatine ratio (UPC) and aerobic urine culture.

A word on the clearance: it is the rate of elimination divided by the concentration. Turning to `CC(=O)N(CC(O)CO)c1c(I)c(C(=O)NCC(O)CO)c(I)c(C(=O)NCC(O)CO)c1I` (stereo not drawn) [iohexol], in data set [1], the “GFR obtained using iohexol samples drawn for six hours” value came out at 2.02 mL/min/kg. Also, the “GFR: Iohexol Plasma Clearance” value was 2.77 mL/min/kg and 4.00 mL/min/kg and 3.71 mL/min/kg and 3.82 mL/min/kg and 4.40 mL/min/kg in data set [2] (Day 0, 150 mg/kg iohexol IV, individual dogs (repeat results for two dogs), 150 mg/kg); 2.00 mL/min/kg and 3.45 mL/min/kg and 2.05 mL/min/kg and 4.17 mL/min/kg and 3.06 mL/min/kg in data set [2] (Day 3 of gentamycin, individual dogs); 2.78 mL/min/kg and 2.05 mL/min/kg and 2.46 mL/min/kg and 1.44 mL/min/kg and 3.36 mL/min/kg in data set [2] (Day 6 of gentamycin, individual dogs); 1.87 mL/min/kg and 0.10 mL/min/kg and 1.49 mL/min/kg and 2.47 mL/min/kg in data set [2] (Day 9 of gentamycin, individual dogs). In addition, in data set [2] (hound-type mongrel, dog, plasma, iv, 150 mg/kg, GFR: Iohexol Plasma Clearance, Day 0, 150 mg/kg iohexol IV, individual dogs (repeat results for two dogs)), the clearance amounted to 3.28 mL/min/kg. For the same compound, the “GFR obtained from iohexol analysis” value in data set [3] was 4.50 mL/min/kg.
As to “fluorescein isothiocyanate-inulin [FITC-inulin]”, the “glomerular filtration / plasma clearance seen as capillary fluorescence intensity over time” value in data set [4] was “rapidly filtered into the proximal tubular lumen; also recorded: immediate plasma clearance”.
For the compound gentamycin, the BUN was 20 mg/dl (2×) and 14 mg/dl and 16 mg/dl and 9 mg/dl in the data set with dogs (Day 0 (baseline)); 16 mg/dl and 12 mg/dl (2×) and 15 mg/dl and 14 mg/dl with dogs (Day 3); 22 mg/dL and 15 mg/dL and 16 mg/dL and 10 mg/dL and 14 mg/dL with dogs (Day 6); 16 mg/dl (2×) and 97 mg/dl and 18 mg/dl and 14 mg/dl in the data set on dogs (Day 9). Further, the “UPC (urine protein-to-creatine ratio)” value is 0.1 (4×) and 0.2 with dogs (Day 0 (baseline)); 0.5 and 1.0 and 0.2 and 0.3 (2×) with dogs (Day 3); 0.5 (2×) and 0.0 (2×) and 0.6 in the data set with dogs (Day 6); 2.1 and 2.8 and 3.1 and 1.7 and 1.6 in the data set on dogs (Day 9). For the same compound, the “USG (urine specific gravity)” value is 1.014 and 1.030 and 1.048 and 1.044 and 1.052 in the data set on dogs (Day 0 (baseline)); 1.008 and 1.014 (2×) and 1.000 and 1.010 with dogs (Day 3); 1.009 and 1.003 and 1.007 and 1.005 and 1.010 in the data set with dogs (Day 6); 1.006 (2×) and 1.011 and 1.004 and 1.005 with dogs (Day 9). The Creatinine in the data set with dogs (Day 0 (first day of injection, baseline)) was 0.8 mg/dl and 1.1 mg/dl and 0.9 mg/dl (2×) and 0.7 mg/dl; in the data set on dogs (Day 3) it was 0.9 mg/dl (2×) and 1.0 mg/dl (2×) and 0.8 mg/dl; in the data set on dogs (Day 6), 1.2 mg/dl and 1.5 mg/dl and 1.4 mg/dl and 1.0 mg/dl (2×); in the data set with dogs (Day 9), 1.5 mg/dL and 5.3 mg/dL and 1.9 mg/dL and 1.6 mg/dL and 1.1 mg/dL.

The values above are taken from US8591865B2, “Renal function analysis method and apparatus” (Pharmacophotonics, Inc., priority 2008, dated 2013).
